Test results reported in ChEMBL document CHEMBL1150352, “Novel substituted aminoalkylguanidines as potential antihyperglycemic and food intake-reducing agents” (2008).

Assays:
Format in all cases: functional
Conditions in all cases: route subcutaneous
Mus musculus [1] = assay: Antihyperglycemic activity in C57BL/KsJ db/db mouse at 25 mg/kg, sc administered twice a day for 4 days and once on day 5 after 60 mins of load injection by insulin suppression test relative to control
Mus musculus [2] = assay: Antihyperglycemic activity in C57BL/KsJ db/db mouse assessed as reduction in water consumption at 25 mg/kg, sc administered twice a day for 4 days and once on day 5 relative to control; set-up: scale not given: the % may be the effect or the level left
Mus musculus [3] = assay: Antihyperglycemic activity in C57BL/KsJ db/db mouse assessed as reduction in food intake at 25 mg/kg, sc administered twice a day for 4 days and once on day 5 relative to control; set-up: scale not given: the % may be the effect or the level left
Mus musculus [4] = assay: Antihyperglycemic activity in C57BL/KsJ db/db mouse at 25 mg/kg, sc administered twice a day for 4 days once on day 5 immediately after load injection by insulin suppression test relative to control
Mus musculus [5] = assay: Antihyperglycemic activity in C57BL/KsJ db/db mouse at 13 mg/kg, sc administered twice a day for 4 days once on day 5 by insulin suppression test relative to control
Mus musculus [6] = assay: Antihyperglycemic activity in C57BL/KsJ db/db mouse at 130 mg/kg, sc administered twice a day for 4 days once on day 5 by insulin suppression test relative to control
Mus musculus [7] = assay: Antihyperglycemic activity in C57BL/KsJ db/db mouse at 5 mg/kg, sc administered twice a day for 4 days once on day 5 after 60 mins of load injection by insulin suppression test relative to control
Mus musculus [8] = assay: Antihyperglycemic activity in C57BL/KsJ db/db mouse at 5 mg/kg, sc administered twice a day for 4 days once on day 5 immediately after load injection by insulin suppression test relative to control

Row | Structure (SMILES) | Activity (Mus musculus [1]) | Activity (Mus musculus [2]) | Activity (Mus musculus [3]) | Activity (Mus musculus [4]) | Activity (Mus musculus [5]) | Activity (Mus musculus [6]) | Activity (Mus musculus [7]) | Activity (Mus musculus [8])
1 | CC(C)=CCNC(=N)NCCCCN | -11% | -53% | -37% | -13% | – | – | – | –
2 | N=C(NCCCCN)NCCCc1ccccc1 | -8% | -44% | -33% | 12% | – | – | – | –
3 | CC(C)CCNC(=N)NCCCCCCN | -24% | -24% | -14% | -17% | – | – | – | –
4 | N=C(NCCCCCCBr)NCC1CC1 | -20% | -30% | -22% | -12% | – | – | – | –
5 | CC(C)=CCNC(=N)NCCCCCCN | -13% | -53% | -19% | -31% | – | – | – | –
6 | N=C(NCC1CCC(CN)CC1)NCC1CC1 (configuration not stated) | -43% | -59% | -40% | -29% | – | – | – | –
7 | CC(C)=CCNC(=N)N[C@H]1CC[C@H](N)CC1 | -22% | -44% | -27% | -14% | – | – | – | –
8 | CC(C)=CCNC(=N)NCCCCCN | -13% | -57% | -41% | -15% | – | – | – | –
9 | CC(C)=CCNC(=N)NCC1CCC(CN)CC1 (configuration not stated) | -29% | -29% | -21% | -8% | – | – | – | –
10 | N=C(NCCCCCCN)NCC1CC1 | -18% | -45% | -19% | -42% | – | – | – | –
11 | CN1CCN(/C(=N\c2ccc(F)cc2)NCCCCCCN)CC1 | -12% | -35% | -14% | -21% | – | – | – | –
12 | NCCCCCCN/C(=N/c1ccc(F)cc1)N1CCCCC1 | -8% | -41% | -22% | -15% | – | – | – | –
13 | CN(C)C(=N)NC(=N)N [METFORMIN] | – | – | – | – | -11% | -22% | – | –
14 | CN(CCOc1ccc(CC2SC(=O)NC2=O)cc1)c1ccccn1 (configuration not stated) [ROSIGLITAZONE] | – | – | – | – | – | – | -39% | -29%
